US7166299B2, “Preparation of aqueous clear solution dosage forms with bile acids” (priority 1998, dated 2007)
Several values for one entry are separate records, joined by “and”; a condition that tells them apart may be missing. Equal values may be shown once.

Assay: Solution stability test (HPLC) of UDCA, branched chained amino acids and maltodextrin solution, Example IV
Format: physicochemical
Procedure: The stability tests were conducted on three different aqueous solution systems: […]. A bile acid and a high molecular weight aqueous soluble starch conversion product were combined in aqueous solution according to Example I, with results as shown in Tables 1A and 1B. • 2. Mixed bile acids and high molecular weight aqueous soluble starch conversion products were combined in aqueous solution according to Example II, with results as shown in Table 2. • 3. Bile acids, high molecular weight aqueous soluble starch conversion products and branched chained amino acids (e.g. leucine, isoleucine, valine, or other amino acid with a branched side chain) were combined in aqueous solution according to Example IV, with results as shown in Tables 3A through 3F. The stability tests were performed with HPLC and microscope light at various pH conditions under the normal and accelerated conditions. Accelerated conditions for testing pharmaceutical compositions have been described (Remington, The Science and Practice of Pharmacy, 19th ed., p. 640). […] Thus, the formulations of the examples are suitable for preparing a commercial liquid dosage form. […] Some formulations remain stable for over 2 years. Moreover, the solution stability tests were conducted on the aqueous solution dosage forms comprising the mixture of aqueous soluble UDCA, branched chained amino acid (leucine, isoleucine, valine) and maltodextrin according to example IV as a typical example of the solution dosage forms in which bile acid as a therapeutically active agent, as an adjuvant or carrier, pharmaceutically active agent, or enhancer of solubility, and high molecular weight aqueous soluble starch conversion products or soluble non-starch polysaccharides are dissolved. According to the test results, there is no discoloration, no clarity changes, and no precipitation. […] In the tables, the concentration of the indicated bile acid salt for each of the three numbered trials and the average thereof is reported on each line. The percentage indicates the relative concentration of the bile acid salt after incubation for a certain amount of time in comparison with the initial concentration. 85 mL of the aqueous solution in which soluble UDCA is dissolved was prepared, and then maltodextrin was added into the clear solution. Into the resulting clear solution, branched amino acids were added with adjusting the pH (4–7) with agitation and then sweetener, preservatives, and flavoring agent were added. Purified water was added to adjust the total volume to be 100 mL. Tables 3A to 3F show stability test results over time of formulation prepared with amino acids according to Example IV. All stability tests were conducted at 50° C. Stability test results at pH 1 (Table 3A), pH 3 (Table 3B), pH 5 (Table 3C), pH 7 (Table 3D), pH 9 (Table 3E), and pH 10 (Table 3F) are shown.

CC(C)[C@H](N)C(=O)O [Val, valine]
Percentage of day 0 concentration (Table 3A: pH1, 50° C., day 0): 100.0% | concentration by HPLC, Average (Table 3A: pH1, 50° C., day 0): 0.471 | concentration by HPLC, trials #1-#3 (Table 3A: pH1, 50° C., day 0): 0.506 and 0.448 and 0.460 | Percentage of day 0 concentration (Table 3A: pH1, 50° C., day 1): 96.7% | concentration by HPLC, Average (Table 3A: pH1, 50° C., day 1): 0.456 | concentration by HPLC, trials #1-#3 (Table 3A: pH1, 50° C., day 1): 0.438 and 0.458 and 0.471 | Percentage of day 0 concentration (Table 3A: pH1, 50° C., day 2): 104.5% | concentration by HPLC, Average (Table 3A: pH1, 50° C., day 2): 0.492 | concentration by HPLC, trials #1-#3 (Table 3A: pH1, 50° C., day 2): 0.479 and 0.485 and 0.513 | Percentage of day 0 concentration (Table 3A: pH1, 50° C., day 6): 112.4% | concentration by HPLC, Average (Table 3A: pH1, 50° C., day 6): 0.530 | concentration by HPLC, trials #1-#3 (Table 3A: pH1, 50° C., day 6): 0.505 and 0.536 and 0.549 | Percentage of day 0 concentration (Table 3A: pH1, 50° C., day 7): 102.9% | concentration by HPLC, Average (Table 3A: pH1, 50° C., day 7): 0.485 | concentration by HPLC, trials #1-#3 (Table 3A: pH1, 50° C., day 7): 0.494 and 0.465 and 0.496 | Percentage of day 0 concentration (Table 3A: pH1, 50° C., day 8): 101.7% | concentration by HPLC, Average (Table 3A: pH1, 50° C., day 8): 0.479 | concentration by HPLC, trials #1-#3 (Table 3A: pH1, 50° C., day 8): 0.488 and 0.491 and 0.459 | Percentage of day 0 concentration (Table 3A: pH1, 50° C., day 9): 103.6% | concentration by HPLC, Average (Table 3A: pH1, 50° C., day 9): 0.488 | concentration by HPLC, trials #1-#3 (Table 3A: pH1, 50° C., day 9): 0.479 and 0.496 and 0.490 | Percentage of day 0 concentration (Table 3B: pH 3, 50° C., day 0): 100.0% | concentration by HPLC, Average (Table 3B: pH 3, 50° C., day 0): 0.491 | concentration by HPLC, trials #1-#3 (Table 3B: pH 3, 50° C., day 0): 0.485 and 0.491 and 0.498 | Percentage of day 0 concentration (Table 3B: pH 3, 50° C., day 1): 94.6% | concentration by HPLC, Average (Table 3B: pH 3, 50° C., day 1): 0.465 | concentration by HPLC, trials #1-#3 (Table 3B: pH 3, 50° C., day 1): 0.467 and 0.481 and 0.446 | Percentage of day 0 concentration (Table 3B: pH 3, 50° C., day 2): 103.8% | concentration by HPLC, Average (Table 3B: pH 3, 50° C., day 2): 0.510 | concentration by HPLC, trials #1-#3 (Table 3B: pH 3, 50° C., day 2): 0.510 and 0.493 and 0.527 | Percentage of day 0 concentration (Table 3B: pH 3, 50° C., day 6): 106.6% | concentration by HPLC, Average (Table 3B: pH 3, 50° C., day 6): 0.524 | concentration by HPLC, trials #1-#3 (Table 3B: pH 3, 50° C., day 6): 0.527 and 0.491 and 0.553 | Percentage of day 0 concentration (Table 3B: pH 3, 50° C., day 7): 97.3% | concentration by HPLC, Average (Table 3B: pH 3, 50° C., day 7): 0.478 | concentration by HPLC, trials #1-#3 (Table 3B: pH 3, 50° C., day 7): 0.485 and 0.481 and 0.468 | Percentage of day 0 concentration (Table 3B: pH 3, 50° C., day 8): 103.5% | concentration by HPLC, Average (Table 3B: pH 3, 50° C., day 8): 0.508 | concentration by HPLC, trials #1-#3 (Table 3B: pH 3, 50° C., day 8): 0.490 and 0.491 and 0.544 | Percentage of day 0 concentration (Table 3B: pH 3, 50° C., day 13): 104.1% | concentration by HPLC, Average (Table 3B: pH 3, 50° C., day 13): 0.511 | concentration by HPLC, trials #1-#3 (Table 3B: pH 3, 50° C., day 13): 0.519 and 0.498 and 0.517 | Percentage of day 0 concentration (Table 3C: pH 5, 50° C., day 0): 100.0% | concentration by HPLC, Average (Table 3C: pH 5, 50° C., day 0): 0.487 | concentration by HPLC, trials #1-#3 (Table 3C: pH 5, 50° C., day 0): 0.483 and 0.498 and 0.481 | Percentage of day 0 concentration (Table 3C: pH 5, 50° C., day 3): 103.4% | concentration by HPLC, Average (Table 3C: pH 5, 50° C., day 3): 0.504 | concentration by HPLC, trials #1-#3 (Table 3C: pH 5, 50° C., day 3): 0.492 and 0.494 and 0.526 | Percentage of day 0 concentration (Table 3C: pH 5, 50° C., day 6): 96.8% | concentration by HPLC, Average (Table 3C: pH 5, 50° C., day 6): 0.472 | concentration by HPLC, trials #1-#3 (Table 3C: pH 5, 50° C., day 6): 0.459 and 0.475 and 0.481 | Percentage of day 0 concentration (Table 3C: pH 5, 50° C., day 10): 96.9% | concentration by HPLC, Average (Table 3C: pH 5, 50° C., day 10): 0.472 | concentration by HPLC, trials #1-#3 (Table 3C: pH 5, 50° C., day 10): 0.500 and 0.436 and 0.480 | Percentage of day 0 concentration (Table 3C: pH 5, 50° C., day 13): 95.0% | concentration by HPLC, Average (Table 3C: pH 5, 50° C., day 13): 0.463 | concentration by HPLC, trials #1-#3 (Table 3C: pH 5, 50° C., day 13): 0.464 and 0.451 and 0.474 | Percentage of day 0 concentration (Table 3C: pH 5, 50° C., day 17): 93.0% | concentration by HPLC, Average (Table 3C: pH 5, 50° C., day 17): 0.453 | concentration by HPLC, trials #1-#3 (Table 3C: pH 5, 50° C., day 17): 0.407 and 0.491 and 0.462 | Percentage of day 0 concentration (Table 3C: pH 5, 50° C., day 20): 99.9% | concentration by HPLC, Average (Table 3C: pH 5, 50° C., day 20): 0.487 | concentration by HPLC, trials #1-#3 (Table 3C: pH 5, 50° C., day 20): 0.471 and 0.512 and 0.477 | Percentage of day 0 concentration (Table 3C: pH 5, 50° C., day 24): 96.1% | concentration by HPLC, Average (Table 3C: pH 5, 50° C., day 24): 0.468 | concentration by HPLC, trials #1-#3 (Table 3C: pH 5, 50° C., day 24): 0.471 and 0.476 and 0.458 | Percentage of day 0 concentration (Table 3D: pH 7, 50° C., day 0): 100.0% | concentration by HPLC, Average (Table 3D: pH 7, 50° C., day 0): 0.513 | concentration by HPLC, trials #1-#3 (Table 3D: pH 7, 50° C., day 0): 0.483 and 0.530 and 0.525 | Percentage of day 0 concentration (Table 3D: pH 7, 50° C., day 5): 94.1% | concentration by HPLC, Average (Table 3D: pH 7, 50° C., day 5): 0.483 | concentration by HPLC, trials #1-#3 (Table 3D: pH 7, 50° C., day 5): 0.502 and 0.447 and 0.499 | Percentage of day 0 concentration (Table 3D: pH 7, 50° C., day 8): 96.2% | concentration by HPLC, Average (Table 3D: pH 7, 50° C., day 8): 0.493 | concentration by HPLC, trials #1-#3 (Table 3D: pH 7, 50° C., day 8): 0.488 and 0.498 and 0.493 | Percentage of day 0 concentration (Table 3D: pH 7, 50° C., day 12): 91.2% | concentration by HPLC, Average (Table 3D: pH 7, 50° C., day 12): 0.467 | concentration by HPLC, trials #1-#3 (Table 3D: pH 7, 50° C., day 12): 0.490 and 0.469 and 0.443 | Percentage of day 0 concentration (Table 3D: pH 7, 50° C., day 15): 95.9% | concentration by HPLC, Average (Table 3D: pH 7, 50° C., day 15): 0.492 | concentration by HPLC, trials #1-#3 (Table 3D: pH 7, 50° C., day 15): 0.492 and 0.541 and 0.442 | Percentage of day 0 concentration (Table 3D: pH 7, 50° C., day 19): 93.6% | concentration by HPLC, Average (Table 3D: pH 7, 50° C., day 19): 0.480 | concentration by HPLC, trials #1-#3 (Table 3D: pH 7, 50° C., day 19): 0.458 and 0.500 and 0.482 | Percentage of day 0 concentration (Table 3E: pH 9, 50° C., day 0): 100.0% | concentration by HPLC, Average (Table 3E: pH 9, 50° C., day 0): 0.489 | concentration by HPLC, trials #1-#3 (Table 3E: pH 9, 50° C., day 0): 0.508 and 0.476 and 0.484 | Percentage of day 0 concentration (Table 3E: pH 9, 50° C., day 3): 97.8% | concentration by HPLC, Average (Table 3E: pH 9, 50° C., day 3): 0.478 | concentration by HPLC, trials #1-#3 (Table 3E: pH 9, 50° C., day 3): 0.463 and 0.487 and 0.485 | Percentage of day 0 concentration (Table 3E: pH 9, 50° C., day 6): 99.5% | concentration by HPLC, Average (Table 3E: pH 9, 50° C., day 6): 0.487 | concentration by HPLC, trials #1-#3 (Table 3E: pH 9, 50° C., day 6): 0.493 and 0.473 and 0.495 | Percentage of day 0 concentration (Table 3E: pH 9, 50° C., day 10): 91.3% | concentration by HPLC, Average (Table 3E: pH 9, 50° C., day 10): 0.447 | concentration by HPLC, trials #1-#3 (Table 3E: pH 9, 50° C., day 10): 0.441 and 0.428 and 0.471 | Percentage of day 0 concentration (Table 3E: pH 9, 50° C., day 13): 101.3% | concentration by HPLC, Average (Table 3E: pH 9, 50° C., day 13): 0.496 | concentration by HPLC, trials #1-#3 (Table 3E: pH 9, 50° C., day 13): 0.467 and 0.483 and 0.537 | Percentage of day 0 concentration (Table 3E: pH 9, 50° C., day 17): 101.8% | concentration by HPLC, Average (Table 3E: pH 9, 50° C., day 17): 0.498 | concentration by HPLC, trials #1-#3 (Table 3E: pH 9, 50° C., day 17): 0.499 | Percentage of day 0 concentration (Table 3F: pH 10, 50° C., day 0): 100.0% | concentration by HPLC, Average (Table 3F: pH 10, 50° C., day 0): 0.486 | Percentage of day 0 concentration (Table 3F: pH 10, 50° C., day 2): 104.2% | concentration by HPLC, Average (Table 3F: pH 10, 50° C., day 2): 0.506 | Percentage of day 0 concentration (Table 3F: pH 10, 50° C., day 5): 83.5% | concentration by HPLC, Average (Table 3F: pH 10, 50° C., day 5): 0.405 | Percentage of day 0 concentration (Table 3F: pH 10, 50° C., day 7): 81.8% | concentration by HPLC, Average (Table 3F: pH 10, 50° C., day 7): 0.397 | Percentage of day 0 concentration (Table 3F: pH 10, 50° C., day 9): 75.8% | concentration by HPLC, Average (Table 3F: pH 10, 50° C., day 9): 0.368
